Conditions: Fluid (supercritical or subcritical phases), Pulse-echo method

C=CC [propene]
Conditions | speed of sound [m/s]
240 K, 7107.3 kPa | 1153.2
240 K, 8108.1 kPa | 1161.6
240 K, 9108.7 kPa | 1169.9
240 K, 10109 kPa | 1178
240 K, 12611 kPa | 1197.8
240 K, 15113 kPa | 1216.8
240 K, 17614 kPa | 1235.1
240 K, 20116 kPa | 1252.7
240 K, 25119 kPa | 1286.5
240 K, 30122 kPa | 1318.2
240 K, 35126 kPa | 1348.3
240 K, 40129 kPa | 1377
240 K, 45132 kPa | 1404.3
240 K, 50136 kPa | 1430.5
240 K, 60144 kPa | 1479.9
240.01 K, 1303 kPa | 1101.2
240.01 K, 2103.6 kPa | 1108.7
240.01 K, 3104.3 kPa | 1118
240.01 K, 4105 kPa | 1127.1
240.01 K, 5105.7 kPa | 1135.9
240.01 K, 6106.4 kPa | 1144.7
260 K, 1303.3 kPa | 970.62
260 K, 2103.9 kPa | 979.88
260 K, 3104.6 kPa | 991.17
260 K, 4105.3 kPa | 1002.2
260 K, 5106.1 kPa | 1012.9
260 K, 6106.6 kPa | 1023.3
260 K, 7107.2 kPa | 1033.5
260 K, 8107.8 kPa | 1043.4
260 K, 9108.2 kPa | 1053.1
260 K, 10109 kPa | 1062.6
260 K, 12613 kPa | 1085.6
260 K, 15114 kPa | 1107.5
260 K, 17616 kPa | 1128.4
260 K, 20118 kPa | 1148.4
260 K, 25121 kPa | 1186.3
260 K, 30124 kPa | 1221.6
260 K, 35128 kPa | 1254.8
260 K, 40131 kPa | 1286.2
260 K, 45134 kPa | 1316
260 K, 50138 kPa | 1344.4
260 K, 60145 kPa | 1397.5
260 K, 70152 kPa | 1446.7
260 K, 80158 kPa | 1492.6
260 K, 90165 kPa | 1535.6
260 K, 100172 kPa | 1576.3
280 K, 1301.6 kPa | 836.39
280 K, 2102.4 kPa | 848.18
280 K, 3103.2 kPa | 862.38
280 K, 4104 kPa | 876.04
280 K, 5104.9 kPa | 889.2
280 K, 6105.8 kPa | 901.91
280 K, 7107.3 kPa | 914.23
280 K, 8108.1 kPa | 926.15
280 K, 9108.8 kPa | 937.72
280 K, 10110 kPa | 948.97
280 K, 12611 kPa | 975.84
280 K, 15113 kPa | 1001.1
280 K, 17613 kPa | 1025
280 K, 20117 kPa | 1047.8
280 K, 25118 kPa | 1090.3
280 K, 30122 kPa | 1129.5
280 K, 35126 kPa | 1166
280 K, 40129 kPa | 1200.2
280 K, 45133 kPa | 1232.4
280 K, 50138 kPa | 1263.1
280 K, 60144 kPa | 1320
280 K, 70151 kPa | 1372.2
280 K, 80157 kPa | 1420.7
280 K, 90164 kPa | 1466.1
280 K, 100171 kPa | 1508.7
299.99 K, 1403.2 kPa | 696.05
299.99 K, 2103.7 kPa | 710.03
299.99 K, 4105.1 kPa | 746.66
299.99 K, 8107.8 kPa | 809.26
299.99 K, 15113 kPa | 898.02
299.99 K, 20116 kPa | 951.33
299.99 K, 25119 kPa | 998.93
299.99 K, 25120 kPa | 998.96
299.99 K, 30123 kPa | 1042.3
299.99 K, 35126 kPa | 1082.1
299.99 K, 40130 kPa | 1119.3
299.99 K, 50137 kPa | 1186.8
299.99 K, 60144 kPa | 1247.4
299.99 K, 70151 kPa | 1302.7
299.99 K, 80156 kPa | 1353.6
299.99 K, 80158 kPa | 1353.7
299.99 K, 90164 kPa | 1401.1
299.99 K, 100172 kPa | 1445.6
300 K, 1402.2 kPa | 696.01
300 K, 1402.5 kPa | 696
300 K, 1402.7 kPa | 696.01
300 K, 2102.7 kPa | 709.98
300 K, 2104.1 kPa | 710.04
300 K, 3103.2 kPa | 728.84
300 K, 3104.7 kPa | 728.9
300 K, 3105.1 kPa | 728.91
300 K, 4103.8 kPa | 746.6
300 K, 4105.8 kPa | 746.67
300 K, 5104.2 kPa | 763.4
300 K, 6104.7 kPa | 779.36
300 K, 6106.5 kPa | 779.42
300 K, 7107.2 kPa | 794.65
300 K, 8106 kPa | 809.21
300 K, 8107.2 kPa | 809.25
300 K, 9106.7 kPa | 823.24
300 K, 10107 kPa | 836.75
300 K, 10109 kPa | 836.79
300 K, 12611 kPa | 868.58
300 K, 15113 kPa | 898
300 K, 17613 kPa | 925.47
300 K, 20114 kPa | 951.3
300 K, 25118 kPa | 998.93
300 K, 30121 kPa | 1042.3
300 K, 35124 kPa | 1082.1
300 K, 40128 kPa | 1119.2
300 K, 45131 kPa | 1154
300 K, 50135 kPa | 1186.8
300 K, 60142 kPa | 1247.4
300 K, 70149 kPa | 1302.6
300 K, 90163 kPa | 1401.1
300 K, 100170 kPa | 1445.6
319.99 K, 22616 kPa | 886.71
319.99 K, 100172 kPa | 1386.9
320 K, 2104.4 kPa | 556.2
320 K, 3105.2 kPa | 584.43
320 K, 4105.8 kPa | 609.63
320 K, 5106.4 kPa | 632.55
320 K, 6107.1 kPa | 653.68
320 K, 7107.8 kPa | 673.35
320 K, 8108.4 kPa | 691.81
320 K, 9108.4 kPa | 709.24
320 K, 10109 kPa | 725.77
320 K, 12611 kPa | 763.9
320 K, 15112 kPa | 798.37
320 K, 17614 kPa | 829.99
320 K, 20116 kPa | 859.32
320 K, 25119 kPa | 912.52
320 K, 30123 kPa | 960.18
320 K, 35126 kPa | 1003.6
320 K, 40130 kPa | 1043.6
320 K, 45133 kPa | 1080.8
320 K, 50136 kPa | 1115.7
320 K, 60143 kPa | 1179.8
320 K, 70150 kPa | 1237.9
320 K, 80157 kPa | 1291.2
320 K, 90164 kPa | 1340.7
340.01 K, 4105 kPa | 453.16
340.01 K, 5105.7 kPa | 489.49
340.01 K, 6106.3 kPa | 520.38
340.01 K, 7107 kPa | 547.59
340.01 K, 8107.7 kPa | 572.12
340.01 K, 9108.2 kPa | 594.57
340.01 K, 10109 kPa | 615.36
340.01 K, 12611 kPa | 661.83
340.01 K, 15113 kPa | 702.48
340.01 K, 17615 kPa | 738.94
340.01 K, 20117 kPa | 772.18
340.01 K, 25119 kPa | 831.39
340.01 K, 30122 kPa | 883.53
340.01 K, 35126 kPa | 930.45
340.01 K, 40129 kPa | 973.32
340.01 K, 45133 kPa | 1012.9
340.01 K, 50136 kPa | 1049.9
340.01 K, 60143 kPa | 1117.3
340.01 K, 70150 kPa | 1178
340.02 K, 80157 kPa | 1233.5
340.02 K, 90164 kPa | 1284.8
340.02 K, 100171 kPa | 1332.5
360 K, 5105 kPa | 311.26
360 K, 6105.7 kPa | 370.15
360 K, 7106.5 kPa | 413.28
360 K, 8107.1 kPa | 448.54
360 K, 9107.8 kPa | 478.92
360 K, 10109 kPa | 505.89
360 K, 12610 kPa | 563.32
360 K, 15112 kPa | 611.37
360 K, 17614 kPa | 653.26
360 K, 20116 kPa | 690.72
360 K, 25119 kPa | 756.2
360 K, 30122 kPa | 812.8
360 K, 35127 kPa | 863.13
360 K, 40130 kPa | 908.71
360 K, 45134 kPa | 950.58
360 K, 50137 kPa | 989.41
360 K, 60144 kPa | 1059.9
360 K, 70151 kPa | 1123
360 K, 80158 kPa | 1180.4
360 K, 90165 kPa | 1233.3
360 K, 100172 kPa | 1282.4
380 K, 7106.1 kPa | 268.33
380 K, 7357.4 kPa | 283.48
380 K, 7606.5 kPa | 297.29
380 K, 7858.2 kPa | 310.32
380 K, 8106.9 kPa | 322.34
380 K, 9107.6 kPa | 364.56
380 K, 10108 kPa | 399.84
380 K, 12610 kPa | 470.55
380 K, 15112 kPa | 526.72
380 K, 17613 kPa | 574.26
380 K, 20116 kPa | 615.93
380 K, 25119 kPa | 687.43
380 K, 30123 kPa | 748.22
380 K, 35126 kPa | 801.68
380 K, 40130 kPa | 849.74
380 K, 45134 kPa | 893.62
380 K, 50137 kPa | 934.15
380 K, 60144 kPa | 1007.4
380 K, 70152 kPa | 1072.6
380 K, 80159 kPa | 1131.7
380 K, 90166 kPa | 1186
380 K, 100173 kPa | 1236.3
400 K, 10108 kPa | 309.3
400 K, 11109 kPa | 343.84
400 K, 12110 kPa | 374.75
400 K, 13110 kPa | 402.68
400 K, 14111 kPa | 428.21
400 K, 15111 kPa | 451.76
400 K, 16111 kPa | 473.63
400 K, 17110 kPa | 494.15
400 K, 18112 kPa | 513.48
400 K, 19112 kPa | 531.79
400 K, 20113 kPa | 549.2
400 K, 22615 kPa | 589.41
400 K, 25117 kPa | 625.81
400 K, 30121 kPa | 690.16
400 K, 35124 kPa | 746.29
400 K, 40128 kPa | 796.45
400 K, 45132 kPa | 842.05
400 K, 50135 kPa | 884.02
400 K, 60142 kPa | 959.55
400.01 K, 70148 kPa | 1026.5
400.01 K, 80156 kPa | 1087
400.01 K, 90163 kPa | 1142.6
400.01 K, 100170 kPa | 1194
420 K, 12107 kPa | 315
420 K, 13108 kPa | 341.84
420 K, 14109 kPa | 367.29
420 K, 15110 kPa | 391.25
420 K, 16110 kPa | 413.79
420 K, 17113 kPa | 435.07
420 K, 18114 kPa | 455.17
420 K, 19115 kPa | 474.24
420 K, 20116 kPa | 492.39
420 K, 22618 kPa | 534.32
420 K, 25120 kPa | 572.24
420 K, 30123 kPa | 639.09
420 K, 35127 kPa | 697.19
420 K, 40130 kPa | 748.95
420 K, 45134 kPa | 795.89
420 K, 50138 kPa | 838.99
420 K, 60145 kPa | 916.37
420 K, 70152 kPa | 984.82
420 K, 80159 kPa | 1046.6

Source: the NIST ThermoML archive (doi:10.1021/je301344y)
